Experimental data reported in patent publication US8426587B2, “Haloallylamine inhibitors of SSAO/VAP-1 and uses therefor” (Pharmaxis Ltd., priority 2007, dated 2013).
pIC50: −log10 of the molar value. Counter-ions that a name gives are not always drawn. Like-named read-outs stand apart in the source and are kept apart here.

How the values were obtained:
Human MAO-B = target: T1, Human MAO-B (Homo sapiens, UniProt P27338); experiment: Inhibition of recombinant MAO-B (Amplex Red); format: biochemical; conditions: 50 μM benzylamine
T1 sequence (P27338 1-520): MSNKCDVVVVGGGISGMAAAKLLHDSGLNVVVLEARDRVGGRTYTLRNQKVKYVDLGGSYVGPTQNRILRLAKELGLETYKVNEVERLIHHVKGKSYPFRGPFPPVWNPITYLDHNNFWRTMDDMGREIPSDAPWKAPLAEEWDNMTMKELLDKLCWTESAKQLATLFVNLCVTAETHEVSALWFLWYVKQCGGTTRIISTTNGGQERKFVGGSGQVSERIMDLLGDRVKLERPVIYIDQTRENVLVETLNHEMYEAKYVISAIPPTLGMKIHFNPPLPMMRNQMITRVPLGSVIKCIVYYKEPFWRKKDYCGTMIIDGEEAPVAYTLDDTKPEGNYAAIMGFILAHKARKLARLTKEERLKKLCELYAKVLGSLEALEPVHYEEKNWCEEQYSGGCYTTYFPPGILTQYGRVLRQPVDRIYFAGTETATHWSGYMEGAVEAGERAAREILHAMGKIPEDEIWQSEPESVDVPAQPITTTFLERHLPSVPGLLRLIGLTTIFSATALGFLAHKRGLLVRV
Protocol: Recombinant MAO-B was incubated in 0.1 M sodium phosphate buffer pH 7.4 with varying concentration of test compounds for 30 min at 37° C. The homogenate/protein was then incubated at 37° C. with […] Amplex® Red, 0.75 U/ml HRP and 40 μM benzylamine (mouse SSAO), 300 μM benzylamine (human SSAO), 100 μM tyramine (MAO-A) or 50 μM benzylamine (MAO-B) and the formation of resorufin was measured (excitation range 530-560 nm and emission at 590 nm) every 5 min in either a Tecan Infinite 200 or a BMG Fluorostar Optima platereader. IC50 were estimated using Graphpad Prism software.

SSAO/VAP-1 = target: T2, SSAO/VAP-1 (Mus musculus, UniProt O70423); experiment: In vivo inhibition of SSAO/VAP-1 activity in mouse genital fat; parameters: species or system BALB/C mice; conditions: ip
T2 construct: the genital fat was excised and frozen; The tissue was homogenized; from tissue; host or cells: genital fat of BALB/C mice
T2 sequence (O70423 1-765): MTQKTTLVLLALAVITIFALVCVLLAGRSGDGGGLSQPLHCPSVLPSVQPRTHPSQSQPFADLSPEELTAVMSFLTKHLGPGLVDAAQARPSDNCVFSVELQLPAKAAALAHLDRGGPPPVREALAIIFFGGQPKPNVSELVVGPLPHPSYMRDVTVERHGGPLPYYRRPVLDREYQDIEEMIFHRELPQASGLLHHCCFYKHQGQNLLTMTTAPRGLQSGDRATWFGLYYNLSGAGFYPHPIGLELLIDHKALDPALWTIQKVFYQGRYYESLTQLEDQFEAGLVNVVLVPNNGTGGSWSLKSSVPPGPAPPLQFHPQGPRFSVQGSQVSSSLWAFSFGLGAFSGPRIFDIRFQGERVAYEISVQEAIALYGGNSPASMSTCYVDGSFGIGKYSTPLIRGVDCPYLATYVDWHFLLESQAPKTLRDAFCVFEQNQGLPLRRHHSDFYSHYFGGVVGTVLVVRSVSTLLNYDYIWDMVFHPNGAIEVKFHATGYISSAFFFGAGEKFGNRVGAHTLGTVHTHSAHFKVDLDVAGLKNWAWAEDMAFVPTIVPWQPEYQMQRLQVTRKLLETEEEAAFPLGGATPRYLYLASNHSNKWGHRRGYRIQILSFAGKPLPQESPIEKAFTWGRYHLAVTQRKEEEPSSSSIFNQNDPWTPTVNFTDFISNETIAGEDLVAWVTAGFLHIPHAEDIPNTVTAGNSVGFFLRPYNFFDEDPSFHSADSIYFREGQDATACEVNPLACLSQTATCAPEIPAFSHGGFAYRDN
Protocol: In vivo inhibition was assessed in mouse genital fat, a tissue with high SSAO/VAP-1 expression. 10 BALB/C mice (5 males and 5 females) were administered 0 mg/kg, 10 mg/kg, 30 mg/kg or 100 mg/kg SSAO/VAP-1 inhibitor by intraperitoneal injection. Two hours after administration the mice were sacrificed and the genital fat was excised and frozen. The tissue was homogenized in 0.01 M sodium phosphate buffer pH 7.4 (10 mL/g) and used to measure SSAO activity using Amplex® Red. ED50 was estimated Using Graphpad Prism software.

[1] = system: LPS-induced pulmonary inflammation; conditions: cited from earlier work
[2] = system: experimental autoimmune encephalomyelitis; conditions: reported in US 2006/0025438 A1; cited from earlier work
[3] = female BALB/C mice, intraperitoneal, genital fat SSAO activity two hours after administration, read-out: Female Mice ED50 [ip]
[4] = male BALB/C mice, intraperitoneal, genital fat SSAO activity two hours after administration, read-out: Male Mice ED50 [ip]

pIC50 (Human MAO-B; 30 min at 37° C. preincubation) | ED50 (SSAO/VAP-1; [3]) [mg/kg] | ED50 (SSAO/VAP-1; [4]) [mg/kg] | pIC50 (Human MAO-B) | SMILES | ED50 (SSAO/VAP-1; read-out: Female Mice ED50 [ip]) [mg/kg] | ED50 (SSAO/VAP-1; read-out: Male Mice ED50 [ip]) [mg/kg] | BAL cell counts ([1]; mouse overexpressing human SSAO/VAP-1, LPS) | LPS-induced increase in TNF-a ([1]; mouse overexpressing human SSAO/VAP-1) | Inhibition of experimental autoimmune encephalomyelitis [2]
> 6.00 | < 50 | < 50 | – | C[C@H](NS(=O)(=O)c1ccc(OC/C(F)=C\CN)cc1)c1ccccc1.Cl [(S,E)-4-(4-Amino-2-fluorobut-2-enyloxy)-N-(1-phenylethyl)benzenesulfonamide] | – | – | – | – | –
> 4.00 | < 100 | < 50 | – | Cc1nc2cc(OC/C(F)=C\CN)ccc2s1.Cl [(E)-3-Fluoro-4-(2-methylbenzo[d]thiazol-5-yloxy)but-2-en-1-amine hydrochloride] | – | – | – | – | –
> 4.00 | < 300 | < 100 | – | CS(=O)(=O)c1ccc(OC/C(F)=C\CN)cc1.Cl [(E)-3-Fluoro-4-(4-(methylsulfonyl)phenoxy)but-2-en-1-amine hydrochloride] | – | – | – | – | –
– | < 1 | < 1 | 8.40 | NC/C(=C/F)CCc1ccc(F)cc1 [Mofegiline, reference compound] | – | – | significantly reduces | significantly attentuates | inhibit experimental autoimmune encephalomyelitis

SMILES | pIC50 (Human MAO-B; 30 min at 37° C. preincubation) | ED50 (SSAO/VAP-1; [3]) [mg/kg] | ED50 (SSAO/VAP-1; [4]) [mg/kg] | pIC50 (Human MAO-B) | ED50 (SSAO/VAP-1; read-out: Female Mice ED50 [ip]) [mg/kg] | ED50 (SSAO/VAP-1; read-out: Male Mice ED50 [ip]) [mg/kg] | BAL cell counts ([1]; mouse overexpressing human SSAO/VAP-1, LPS) | LPS-induced increase in TNF-a ([1]; mouse overexpressing human SSAO/VAP-1) | Inhibition of experimental autoimmune encephalomyelitis [2]
NC/C=C(/F)COc1ccc(C(=O)NC2CCCCC2)cc1 [(E)-4-(4-amino-2-fluorobut-2-enyloxy)-N-cyclohexylbenzamide hydrochloride] | > 6.00 | – | – | – | < 50 | < 50 | – | – | –
